From ChEMBL document CHEMBL5137057, “Small Carbohydrate Derivatives as Potent Antibiofilm Agents” (J Med Chem, 2022)
Converted amounts (≈) assume the structure as drawn.

How the values were obtained:
[1] = tested on: Mycolicibacterium smegmatis; experiment: Antibiofilm activity against Mycobacterium smegmatis MC2 155 assessed as […] measured after 48 hrs by crystal violet staining based analysis; format: functional
[2] = tested on: Mycolicibacterium smegmatis; experiment: Antimicrobial activity against Mycobacterium smegmatis MC2 155 assessed as planktonic growth inhibition measured after 48 hrs by microplate reader analysis; format: functional
[3] = molecular target: Type 1 fimbrin D-mannose specific adhesin (Escherichia coli K-12) (UniProt P08191); experiment: Inhibition of Escherichia coli UTI89 FimH by hemagglutination assay
Escherichia coli = experiment: Antibiofilm activity against Escherichia coli UTI89; format: functional, organism-based
Staphylococcus aureus [4] = experiment: Antibiofilm activity against methicillin-sensitive Staphylococcus aureus UAMS-1 measured after 22 hrs by crystal violet staining based assay; format: functional
[5] = molecular target: Type 1 fimbrin D-mannose specific adhesin (Escherichia coli K-12) (UniProt P08191); experiment: Relative inhibitory potency, ratio of methyl alpha-D-mannose Kd to compound Kd for binding affinity to C-terminal His-tagged truncated Escherichia coli FimH by SPR analysis; details: K12
[6] = molecular target: T1, PA-I galactophilic lectin (Pseudomonas aeruginosa (strain ATCC 15692 / PAO1 / 1C / PRS 101 / LMG12228), UniProt Q05097); experiment: Binding affinity to Pseudomonas aeruginosa LecA assessed as dissociation constant by isothermal titration calorimetry
T1 sequence (Q05097 whole entry): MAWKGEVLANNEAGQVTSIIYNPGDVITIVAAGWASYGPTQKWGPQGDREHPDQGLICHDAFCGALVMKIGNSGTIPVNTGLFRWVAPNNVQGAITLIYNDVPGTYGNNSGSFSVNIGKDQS

[7] = molecular target: T1, PA-I galactophilic lectin; experiment: Inhibition of Pseudomonas aeruginosa LecA incubated for 4 to 6 hrs by fluorescence polarization based competitive binding analysis
[8] = molecular target: Type 1 fimbrin D-mannose specific adhesin (Escherichia coli K-12) (UniProt P08191); experiment: Relative inhibitory potency, ratio of methyl alpha-D-mannose Kd to compound Kd for binding affinity to Escherichia coli FimH by ELISA assay; details: K12
Staphylococcus aureus [9] = experiment: Antibacterial activity against Staphylococcus aureus ATCC 25923 assessed as inhibition of biofilm formation incubated for 24 hrs by crystal violet staining based analysis relative to control; format: functional; design: scale not given: the % may be the effect or the level left
Serratia marcescens = experiment: Antibacterial activity against Serratia marcescens ATCC 27117 assessed as inhibition of biofilm formation at 50 ug/ml incubated for 24 hrs by crystal violet staining based analysis relative to control; format: functional; design: scale not given: the % may be the effect or the level left; details: dose 50 µg/ml
[10] = molecular target: T2, Fucose-binding lectin PA-IIL (Pseudomonas aeruginosa (strain ATCC 15692 / DSM 22644 / CIP 104116 / JCM14847 / LMG 12228 / 1C / PRS 101 / PAO1), UniProt Q9HYN5); experiment: Binding affinity to Pseudomonas aeruginosa PA14 LecB assessed as dissociation constant by isothermal titration calorimetry
Target sequence in this assay (Q9HYN5 1-115): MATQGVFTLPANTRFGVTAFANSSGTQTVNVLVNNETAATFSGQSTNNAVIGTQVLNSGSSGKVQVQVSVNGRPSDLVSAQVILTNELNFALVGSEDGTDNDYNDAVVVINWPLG

[11] = molecular target: T2, Fucose-binding lectin PA-IIL; experiment: Binding affinity to Pseudomonas aeruginosa PAO1 LecB assessed as dissociation constant by isothermal titration calorimetry
Target sequence in this assay (Q9HYN5 whole entry): as the sequence (Q9HYN5 1-115) above

[12] = molecular target: T2, Fucose-binding lectin PA-IIL; experiment: Inhibition of Pseudomonas aeruginosa PA14 LecB incubated for 22 to 24 hrs by fluorescence polarization based competitive binding analysis
Target sequence in this assay (Q9HYN5 1-115): as above

[13] = Binding affinity to Lactobacillus reuteri Glucosyltransferase assessed as dissociation constant by SPR analysis; design: species or system Limosilactobacillus reuteri
Pseudomonas aeruginosa [14] = experiment: Antibacterial activity against Pseudomonas aeruginosa PAO1 NCTC 10332 assessed as inhibition of biofilm formation incubated for 24 hrs by crystal violet staining based analysis; format: functional, organism-based; details: PAO1 NCTC 10332, 24 h
Streptococcus agalactiae [15] = experiment: Antibiofilm activity against Streptococcus agalactiae GB2; format: functional
Streptococcus agalactiae [16] = experiment: Antibiofilm activity against Streptococcus agalactiae GRS90; format: functional; details: dose 128 µg/ml; time 22 hrs
Pseudomonas aeruginosa [17] = experiment: Antibiofilm activity against Pseudomonas aeruginosa PA14 measured after 48 hrs by confocal laser scanning microscope analysis relative to control; format: functional
Staphylococcus aureus [18] = experiment: Potentiation of vancomycin-induced antibacterial activity against methicillin resistant Staphylococcus aureus Mu50 pretreated with compound followed by vancomycin addition; format: functional, organism-based
Staphylococcus aureus [19] = experiment: Potentiation of vancomycin-induced antibacterial activity against methicillin resistant Staphylococcus aureus Mu50 in presence of vancomycin; format: functional, organism-based

Type 1 fimbrin D-mannose specific adhesin (Escherichia coli K-12), sequence (P08191 whole entry, the tested form may be a part): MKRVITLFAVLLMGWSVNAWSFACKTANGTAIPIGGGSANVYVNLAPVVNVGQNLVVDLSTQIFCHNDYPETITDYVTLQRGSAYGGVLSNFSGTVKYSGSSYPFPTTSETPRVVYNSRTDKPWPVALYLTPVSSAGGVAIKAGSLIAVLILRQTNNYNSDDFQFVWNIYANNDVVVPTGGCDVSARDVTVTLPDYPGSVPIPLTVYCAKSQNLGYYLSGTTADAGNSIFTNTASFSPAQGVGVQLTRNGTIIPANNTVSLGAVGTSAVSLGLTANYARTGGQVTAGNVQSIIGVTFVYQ

SMILES: OC[C@H]1O[C@H](O[C@H]2O[C@H](CF)[C@@H](O)[C@H](O)[C@H]2O)[C@H](O)[C@@H](O)[C@@H]1O
- MBIC [1]: 100 µM
- MIC [2]: > 500 µM

SMILES: Cc1cc(-c2ccc3ccn(CC(=O)Nc4cccnc4)c(=O)c3c2)ccc1O[C@H]1O[C@H](CO)[C@@H](O)[C@H](O)[C@@H]1O
- EC>90 [3]: 1 nM
- IC50 (Escherichia coli): 0.018 µM

SMILES: O=c1oc2c(O)c(O)cc3c(=O)oc4c(O)c(O)cc1c4c23 [ELLAGIC ACID]
- MBIC50 (Staphylococcus aureus [4]): 128 µg/mL
- MBIC90 (Staphylococcus aureus [4]): >512 µg/mL
- MIC50 (Staphylococcus aureus [4]; Staphylococcus aureus, UAMS-1): > 512 µg/mL

SMILES: Cc1cc(=O)oc2ccc(O[C@H]3O[C@H](CO)[C@@H](O)[C@H](O)[C@@H]3O)cc12
- Ratio [5]: 380

SMILES: O=C(N/N=C/c1ccc(Oc2ccc(/C=N/NC(=O)c3ccc(O[C@@H]4O[C@H](CO)[C@H](O)[C@H](O)[C@H]4O)cc3)cc2)cc1)c1ccc(O[C@@H]2O[C@H](CO)[C@H](O)[C@H](O)[C@H]2O)cc1
- Kd [6]: 10.8 µM
- IC50 [7]: 5 µM

SMILES: CCOc1c(Nc2ccc(O[C@H]3O[C@H](CO)[C@@H](O)[C@H](O)[C@@H]3O)cc2)c(=O)c1=O
- Ratio [8]: 1800

SMILES: CCOc1c(Nc2ccc(O[C@H]3O[C@H](CO)[C@@H](O)[C@H](O)[C@@H]3O)c(Cl)c2)c(=O)c1=O
- Ratio [8]: 6900

SMILES: OC[C@H]1O[C@H](O[C@H]2S[C@H](CO)[C@@H](O)[C@H](O)[C@H]2O)[C@H](O)[C@@H](O)[C@@H]1O
- MBIC [1]: 100 µM
- MIC [2]: > 500 µM

SMILES: CCCCCCC[C@H](CC(=O)NCc1ccccc1)OC(=O)C[C@@H](CCCCCCC)O[C@@H]1O[C@@H](C)[C@H](O)[C@@H](O)[C@H]1O[C@@H]1O[C@@H](C)[C@H](O)[C@@H](O)[C@H]1O
- Activity (Staphylococcus aureus [9]): >90%
- Activity (Serratia marcescens): >80%

SMILES: COc1ccc(/C=N/NC(=O)c2ccc(O[C@@H]3O[C@H](CO)[C@H](O)[C@H](O)[C@H]3O)cc2)cc1
- Kd [6]: 5.6 µM
- IC50 [7]: 55.5 µM

SMILES: OC[C@H]1O[C@H](O[C@H]2O[C@H](CO)[C@@H](O)[C@H](O)[C@H]2O)[C@@H](O)[C@@H](O)[C@@H]1O
- MBIC [1]: >500 µM
- MIC [2]: > 500 µM

SMILES: C[C@@H]1O[C@H](CNC(=O)/C=C/c2ccccc2)[C@@H](O)[C@H](O)[C@@H]1O
- Kd [10]: 2.59 µM
- Kd [11]: 3.09 µM
- IC50 [12]: 2.5 µM

SMILES: CNC(=O)c1cccc(-c2ccc(O[C@H]3O[C@H](CO)[C@@H](O)[C@H](O)[C@@H]3O)c(C(F)(F)F)c2)c1
- EC>90 [3]: 32 nM

SMILES: C[C@H]1[C@H](Oc2ccc(/C=N/NC(=O)C3CCN(C(=O)OC(C)(C)C)CC3)cc2)O[C@H](CO)[C@@H](O)[C@@H]1O
- Kd [13]: 1600 µM

SMILES: CNC(=O)c1cc(C(=O)NC)cc(-c2ccc(O[C@H]3O[C@H](CO)[C@@H](O)[C@H](O)[C@@H]3O)c(C(F)(F)F)c2)c1
- EC>90 [3]: 8 nM

SMILES: CCCCCCC[C@H](CC(=O)O)OC(=O)C[C@@H](CCCCCCC)O[C@@H]1O[C@@H](C)[C@H](O)[C@@H](O)[C@H]1O[C@@H]1O[C@@H](C)[C@H](O)[C@@H](O)[C@H]1O
- IC50 (Pseudomonas aeruginosa [14]): 75 µg/mL (≈ 115 µM)

SMILES: O=c1oc2c(O[C@@H]3OC[C@H](O)[C@H](O)[C@H]3O)c(O)cc3c(=O)oc4c(O)c(O)cc1c4c23
- MBIC50 (Streptococcus agalactiae [15]): 512 µg/mL
- MBIC50 (Streptococcus agalactiae [16]): 512 µg/mL

SMILES: [N-]=[N+]=NC[C@H]1O[C@H](O[C@H]2O[C@H](CO)[C@@H](O)[C@H](O)[C@H]2O)[C@H](O)[C@@H](O)[C@@H]1O
- MBIC [1]: 50 µM
- MIC [2]: > 500 µM

SMILES: Cc1cc(-c2ccc3ccn(C(=O)Nc4cccnc4)c(=O)c3c2)ccc1O[C@H]1O[C@H](CO)[C@@H](O)[C@H](O)[C@@H]1O
- EC>90 [3]: 62 nM

SMILES: CNC(=O)c1cccc(-c2ccc(O[C@H]3O[C@H](CO)[C@@H](O)[C@H](O)[C@@H]3O)c(C)c2)c1
- EC>90 [3]: 62 nM

SMILES: Cc1cc(C)c(S(=O)(=O)NC[C@H]2O[C@@H](C)[C@@H](O)[C@@H](O)[C@@H]2O)c(C)c1
- Kd [10]: 0.31 µM
- Kd [11]: 1.27 µM
- IC50 [12]: 0.34 µM
- Activity (Pseudomonas aeruginosa [17]): 80%

SMILES: O=C(NC[C@]1(O)CO[C@H](CN2C(=O)c3ccccc3C2=O)[C@H]1O)c1ccccc1
- EC50 (Staphylococcus aureus [18]): 5.01 µM
- EC50 (Staphylococcus aureus [19]): 8.29 µM

SMILES: Cc1cc(-c2ccc3cc[nH]c(=O)c3c2)ccc1O[C@H]1O[C@H](CO)[C@@H](O)[C@H](O)[C@@H]1O
- EC>90 [3]: 31 nM
- IC50 (Escherichia coli): 0.13 µM
